# In patent publication US9309240B2, “Pyrazolopyridine compounds, compositions and methods of use” (F. HOFFMANN-LA ROCHE AG, priority 2010, dated 2016):
# Counter-ions that a name gives are not always drawn.
# Biological target: T1, TYK2 kinase domain (Homo sapiens, UniProt P29597)
# T1 construct: The activity of the isolated JAK1, JAK2 or TYK2 kinase domain was measured
# T1 sequence (P29597 897-1176 limits assumed): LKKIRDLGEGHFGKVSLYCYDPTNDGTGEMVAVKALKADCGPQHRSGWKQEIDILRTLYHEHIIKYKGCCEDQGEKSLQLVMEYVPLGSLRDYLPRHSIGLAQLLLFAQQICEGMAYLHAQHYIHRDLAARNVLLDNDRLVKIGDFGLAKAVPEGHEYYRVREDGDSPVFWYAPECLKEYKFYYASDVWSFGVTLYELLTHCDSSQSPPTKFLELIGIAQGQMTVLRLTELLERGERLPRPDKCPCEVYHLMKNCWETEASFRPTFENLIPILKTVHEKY
# Assay: JAK1, JAK2 and TYK2 Inhibition Assay Protocol (Example A): TYK2 kinase domain, Caliper LabChip peptide phosphorylation
# Assay type: biochemical
# Settings: isolated TYK2 kinase domain, 1 nM enzyme, 25 uM ATP, Morrison tight binding model
# Protocol: The activity of the isolated JAK1, JAK2 or TYK2 kinase domain was measured by monitoring phosphorylation of a peptide derived from JAK3 (Val-Ala-Leu-Val-Asp-Gly-Tyr-Phe-Arg-Leu-Thr-Thr) fluorescently labeled on the N-terminus with 5-carboxyfluorescein using the Caliper LabChip technology (Caliper Life Sciences, Hopkinton, Mass.). To determine the inhibition constants (Ki) of Examples 1-165, compounds were diluted serially in DMSO and added to 50 μL kinase reactions containing 1.5 nM JAK1, 0.2 nM purified JAK2 or 1 nM purified TYK2 enzyme, 100 mM Hepes pH7.2, 0.015% Brij-35, 1.5 uM peptide substrate, 25 uM ATP, 10 mM MgCl2, 4 mM DTT at a final DMSO concentration of 2%. Reactions were incubated at 22° C. in 384-well polypropylene microtiter plates for 30 minutes and then stopped by addition of 25 μL of an EDTA containing solution (100 mM Hepes pH 7.2, 0.015% Brij-35, 150 mM EDTA), resulting in a final EDTA concentration of 50 mM. After termination of the kinase reaction, the proportion of phosphorylated product was determined as a fraction of total peptide substrate using the Caliper LabChip 3000 according to the manufacturer's specifications. Ki values were then determined using the Morrison tight binding model. Morrison, J. F., Biochim. Biophys. Acta. 185:269-296 (1969); William, J. W. and Morrison, J. F., Meth. Enzymol., 63:437-467 (1979).
row,Compound,Ki [nM]
1,"Nc1cc(Nc2nccc3nn(-c4c(F)ccc(F)c4Cl)cc23)ncn1 [Example 81, N4-(2-(2-chloro-3,6-difluorophenyl)-2H-pyrazolo[4,3-c]pyridin-4-yl)pyrimidine-4,6-diamine]",2.2
2,"O=C(Nc1nccc2nn(-c3c(F)cccc3Cl)cc12)C1CC1 [Example 15, N-(2-(2-chloro-6-fluorophenyl)-2H-pyrazolo[4,3-c]pyridin-4-yl)cyclopropanecarboxamide]",1.6
3,"OCCN1CCN(c2cc(Nc3nccc4nn(-c5c(Cl)cccc5Cl)cc34)ncn2)CC1 [Example 49, 2-(4-(6-((2-(2,6-dichlorophenyl)-2H-pyrazolo[4,3-c]pyridin-4-yl)amino)-pyrimidin-4-yl)piperazin-1-yl)ethan-1-ol]",1.9
4,"N#Cc1cc(N)cc(Cl)c1-n1cc2c(Nc3cc(N)ncn3)ncc(F)c2n1 [Example 101, 5-Amino-2-[4-(6-aminopyrimidin-4-ylamino)-7-fluoropyrazolo[4,3-c]pyridin-2-yl]-3-chlorobenzonitrile formate salt]",105
5,"Cc1cc(Nc2nccc3nn(-c4c(Cl)cccc4Cl)cc23)ncc1C#N [Example 53, 6-[2-(2,6-Dichlorophenyl)-2H-pyrazolo[4,3-c]pyridin-4-ylamino]-4-methyl-nicotinonitrile]",1
6,"N#Cc1cc(Cl)c(-n2cc3c(Nc4cc(N)ncn4)ncc(F)c3n2)c(Cl)c1 [Example 34, 4-[4-(6-Amino-pyrimidin-4-ylamino)-7-fluoro-pyrazolo[4,3-c]pyridin-2-yl]-3,5-dichlorobenzonitrile.HCl]",0.4
7,"N#Cc1cccc(Cl)c1-n1cc2c(Nc3cc(N)ncn3)ncc(Cl)c2n1 [Example 151, 2-(4-(6-aminopyrimidin-4-ylamino)-7-chloro-2H-pyrazolo[4,3-c]pyridin-2-yl)-3-chlorobenzonitrile]",0.1
8,"Cc1cc(Nc2cc(Cl)c(-n3cc4c(Nc5cc(C)ncn5)nccc4n3)c(C#N)c2)ncn1 [Example 158, 3-chloro-5-(6-methylpyrimidin-4-ylamino)-2-(4-(6-methylpyrimidin-4-ylamino)-2H-pyrazolo[4,3-c]pyridin-2-yl)benzonitrile]",1.8
9,"N#Cc1ccc(Nc2nccc3nn(-c4c(Cl)cccc4Cl)cc23)nc1 [Example 3, 6-[2-(2,6-Dichlorophenyl)-2H-pyrazolo[4,3-c]pyridin-4-ylamino]nicotinonitrile]",3
10,"O=C(Nc1nccc2nn(-c3c(Cl)cccc3Cl)cc12)C1CC1 [Example 1, N-(2-(2,6-Dichlorophenyl)-2H-pyrazolo[4,3-c]pyridin-4-yl)cyclopropanecarboxamide]",1.3
11,"Cc1cc(Nc2nccc3nn(-c4c(Cl)cccc4Cl)cc23)nc(C)n1 [Example 2, [2-(2,6-Dichlorophenyl)-2H-pyrazolo[4,3-c]pyridine-4-yl]-(2,6-dimethylpyrimidin-4-yl)amine]",2
12,"OCc1cc(Nc2ncc(Br)c3nn(-c4c(Cl)cccc4Cl)cc23)ncn1 [Example 37, {6-[7-Bromo-2-(2,6-dichloro-phenyl)-2H-pyrazolo[4,3-c]pyridin-4-ylamino]-pyrimidin-4-yl}-methanol]",0.4
13,"CNC(=O)Nc1nccc2nn(-c3c(Cl)cccc3Cl)cc12 [Example 7, 1-[2-(2,6-Dichlorophenyl)-2H-pyrazolo[4,3-c]pyridine-4-yl]-3-methylurea]",3.3
14,"N#Cc1cnc(Nc2cc(N)ncn2)c2cn(-c3c(Cl)cccc3Cl)nc12 [Example 40, 4-(6-Aminopyrimidin-4-ylamino)-2-(2,6-dichlorophenyl)-2H-pyrazolo[4,3-c]pyridine-7-carbonitrile]",1.1
15,"Cc1cc(Nc2ncc(Cl)c3nn(-c4c(Cl)cc(C#N)cc4Cl)cc23)ncn1 [Example 30, 3,5-Dichloro-4-[7-chloro-4-(6-methylpyrimidin-4-ylamino)pyrazolo[4,3-c]pyridin-2-yl]benzonitrile]",5.6
16,"N#Cc1cc(Cl)c(-n2cc3c(NC(=O)C4CC4)nccc3n2)c(Cl)c1 [Example 69, N-(2-(2,6-dichloro-4-cyanophenyl)-2H-pyrazolo[4,3-c]pyridin-4-yl)cyclopropane-carboxamide]",2
17,"CS(=O)(=O)c1cc(Cl)c(-n2cc3c(NC(=O)C4CC4)nccc3n2)c(Cl)c1 [Example 67, N-(2-(2,6-dichloro-4-methane-sulphonyl-phenyl)-2H-pyrazolo[4,3-c]pyridine-4-yl)cyclopropane-carboxamide]",14.9
18,"COC(=O)Nc1nccc2nn(-c3c(Cl)cccc3Cl)cc12 [Example 6, [2-(2,6-Dichlorophenyl)-2H-pyrazolo[4,3-c]pyridine-4-yl]carbamic acid methyl ester]",5.2
19,"CC(O)c1cc(Nc2ncc(F)c3nn(-c4c(Cl)cccc4C#N)cc23)ncn1 (stereo not shown) [Example 96, 3-Chloro-2-{7-fluoro-4-[6-(1-hydroxyethyl)-pyrimidin-4-ylamino]-pyrazolo[4,3-c]pyridin-2-yl}-benzonitrile]",0.8
